The text below walks through data of patent US7071219B2, “Mono-acylated o-phenylendiamines derivatives” (Hoffmann-La Roche Inc., priority 2004, dated 2006).

In this assay the test system is histone deacetylase (HDAC). As to the kind of experiment: cellular acetylation assay (histone acetylation ELISA in PC3 cells). The assay is classed as cell-based, human. To be noted: compound 1 μM, 24 h incubation, ELISA with antibodies against acetylated histone H3 or H4. As for the experimental part: In this assay, acetylation of histones is monitored in PC3 cells. High acetylation correlates with inhibition of histone deacetylase by compounds. Cell viability is monitored in parallel to estimate the cytotoxicity of compounds.
PC3 cells, a human prostate carcinoma cell line, are seeded as 1800 cells per well of a 384-well microtiterplate in RPMI 1640 (including 5% FCS, 2 mM glutamine and pen/strep).
After 48 h at 37° C. pre-diluted compounds are added to a final concentration of 1 uM. Compounds are pre-diluted in dimethyl sulfoxide (DMSO) resulting in a final concentration of DMSO of 0.5% per well.
After 24 h incubation cell viability is determined by adding cell proliferation reagent WST-1 (Roche Molecular Biochemicals). Another 60 min later the optical density (OD) is measured (450 nm versus 690 nm).
After measurement the cell layer is prepared for the ELISA reaction. Medium is aspirated and cells are fixed in ethanol at −20° C. for 60 min. After washing with PBS/Tween the blocking solution (PBS/5% FCS/Tween) is added and the cell layer is washed again. Antibodies against acetylated histone H3 or H4 (rabbit polyklonal IgG, Upstate Biotechnologie) are added at a dilution of 1:200 for 60 min at 37° C. As a second antibody goat anti rabbit IgG (H+L) humanIgG adsorbed-HRP conjugate (Dako) is used (1:2000 diluted). Cells are washed 3 times and the peroxidase substrate ABTS is allowed to react for 30–60 min at 37° C. The OD is measured at 405 nm.
The percentage of acetylation is calculated after substraction of blank O.D.s: […]
Regarding `CC(C)N(CCNC(=O)c1ccc(C(=O)Nc2ccccc2N)cn1)C(C)C` [Example 2-1, Pyridine-2,5-dicarboxylic acid 5-[(2-amino-phenyl)-amide]2-[(2-diisopropylamino-ethyl)-amide]], the “cell acetylation (PC3, 1 μM) [% of control]” value is 206.6 % of control.

For the compound `CC(C)N(CCNC(=O)c1ccc(C(=O)Nc2ccccc2N)nc1)C(C)C` [Example 3-1, pyridine-2,5-dicarboxylic acid 2-[(2-amino-phenyl)-amide]5-[(2-diisopropylamino-ethyl)-amide]], the “cell acetylation (PC3, 1 μM) [% of control]” value is recorded as 244.8 % of control.

Take `CCCCN(C)C(=O)c1ccc(C(=O)Nc2ccccc2N)s1` [Example 1-19, thiophene-2,5-dicarboxylic acid 2-[(2-amino-phenyl)-amide]5-(butyl-methyl-amide)]: the “cell acetylation (PC3, 1 μM) [% of control]” value is recorded as 118.8 % of control.

Take `CC(C)N(CCNC(=O)c1ccc(C(=O)Nc2ccccc2N)cc1)C(C)C` [Example 4-1, N-(2-amino-phenyl)-N′-(2-diisopropylamino-ethyl)-terephthalamide]: the “cell acetylation (PC3, 1 μM) [% of control]” value is 399.3 % of control.

With `CN(C)CCNC(=O)c1ccc(C(=O)Nc2ccccc2N)nc1` [Example 3-5, pyridine-2,5-dicarboxylic acid 2-[(2-amino-phenyl)-amide]5-[(2-dimethylamino-ethyl)-amide]], the “cell acetylation (PC3, 1 μM) [% of control]” value is reported as 154.6 % of control.

Take `CCOC(=O)CC(C)NC(=O)c1ccc(C(=O)Nc2ccccc2N)nc1` (stereo not shown) [Example 3-9, 3-{[6-(2-amino-phenylcarbamoyl)-pyridine-3-carbonyl]-amino}-butyric acid ethyl ester]: the “cell acetylation (PC3, 1 μM) [% of control]” value was 211.6 % of control.

For the compound `CN(C)CCNC(=O)c1ccc(C(=O)Nc2ccccc2N)s1` [Example 1-18, Thiophene-2,5-dicarboxylic acid 2-[(2-amino-phenyl)-amide]5-[(2-dimethylaminoethyl)-amide]], the “cell acetylation (PC3, 1 μM) [% of control]” value is 233.9 % of control.

Consider `NC(=O)c1ccc(C(=O)Nc2ccccc2N)s1` [Example 1-44, thiophene-2,5-dicarboxylic acid 2-amide 5-[(2-amino-phenyl)-amide]], for which the “cell acetylation (PC3, 1 μM) [% of control]” value is given as 185.6 % of control.

On to `CN(C)CC(C)(C)CNC(=O)c1ccc(C(=O)Nc2ccccc2N)s1` [Example 1-17, Thiophene-2,5-dicarboxylic acid 2-[(2-amino-phenyl)-amide]5-[(3-dimethylamino-2,2-dimethylpropyl)-amide]], for which the “cell acetylation (PC3, 1 μM) [% of control]” value is reported as 149.8 % of control.

For the compound `CCC(C)CNC(=O)c1ccc(C(=O)Nc2ccccc2N)s1` (stereo not shown) [Example 1-35, Thiophene-2,5-dicarboxylic acid 2-[(2-amino-phenyl)-amide]5-[(2-methyl-butyl)-amide]], the “cell acetylation (PC3, 1 μM) [% of control]” value was 135.4 % of control.

With `CCCC(C)NC(=O)c1ccc(C(=O)Nc2ccccc2N)s1` (stereo not shown) [Example 1-1, Thiophene-2,5-dicarboxylic acid 2-[(2-amino-phenyl)-amide]5-[(1-methyl-butyl)-amide]], the “cell acetylation (PC3, 1 μM) [% of control]” value is reported as 137.2 % of control.

As for `CCCCN(CCCC)CCCNC(=O)c1ccc(C(=O)Nc2ccccc2N)nc1` [Example 3-20, pyridine-2,5-dicarboxylic acid 2-[(2-amino-phenyl)-amide]5-[(3-dibutylamino-propyl)-amide]], the “cell acetylation (PC3, 1 μM) [% of control]” value is 223.8 % of control.

Take `CC(=O)Nc1ccc(C(=O)Nc2ccccc2N)cc1` [Reference Compound, 4-acetylamino-N-(2-aminophenyl)-benzamide, reference compound]: the “cell acetylation (PC3, 1 μM) [% of control]” value is 152 % of control.

For `CCC(C)NC(=O)c1ccc(C(=O)Nc2ccccc2N)s1` (stereo not shown) [Example 1-24, Thiophene-2,5-dicarboxylic acid 2-[(2-amino-phenyl)-amide]5-sec-butylamide], the “cell acetylation (PC3, 1 μM) [% of control]” value is 211.2 % of control.

For the compound `CCCCN(CCCC)CCCNC(=O)c1ccc(C(=O)Nc2ccccc2N)s1` [Example 1-4, Thiophene-2,5-dicarboxylic acid 2-[(2-amino-phenyl)-amide]5-[(3-dibutylamino-propyl)-amide]], the “cell acetylation (PC3, 1 μM) [% of control]” value was 195.7 % of control.

Regarding `CCCCCC(C)NC(=O)c1ccc(C(=O)Nc2ccccc2N)s1` (stereo not shown) [Example 1-6, Thiophene-2,5-dicarboxylic acid 2-[(2-amino-phenyl)-amide]5-[(1-methyl-hexyl)-amide]], the “cell acetylation (PC3, 1 μM) [% of control]” value was 122.9 % of control.
